Experiment: Visual Analogue Scale gastrointestinal side effects after 2 hr intravenous infusion (Example 3)
Format: in vivo, human
Set-up: key to Mean Cumulative Score (Visual Analogue Scale), abdominal pain / Mean Cumulative Score (Visual Analogue Scale), nausea / Mean Cumulative Score (Visual Analogue Scale), regurgitation / Mean Cumulative Score (Visual Analogue Scale), abdominal cramping: sum over 240 h of 0–10 VAS severity scores, averaged per subject
Conditions: not corrected for placebo effects; for Incidence of Visual-Analogue-Scale score >1, abdominal cramping / Incidence of Visual-Analogue-Scale score >1, abdominal pain / Incidence of Visual-Analogue-Scale score >1, nausea / Incidence of Visual-Analogue-Scale score >1, regurgitation / Incidence of Visual-Analogue-Scale score >4, abdominal cramping / Incidence of Visual-Analogue-Scale score >4, abdominal pain / Incidence of Visual-Analogue-Scale score >4, nausea / Incidence of Visual-Analogue-Scale score >4, regurgitation: any time during 240 hour post-dose; for Mean Cumulative Score (Visual Analogue Scale), abdominal cramping / Mean Cumulative Score (Visual Analogue Scale), abdominal pain / Mean Cumulative Score (Visual Analogue Scale), nausea / Mean Cumulative Score (Visual Analogue Scale), regurgitation: entire 240 hour post-dose period
Experimental: Healthy male subjects were divided into four groups. Group A received a 2 hr intravenous infusion of a placebo solution (0 g azithromycin). Group B received a 2 hr intravenous infusion of a 1 g dose of azithromycin. Group C received a 2 hr intravenous infusion of a 2 g dose of azithromycin. Group D received a 2 hr intravenous infusion of a 4 g dose of azithromycin. […] All subjects were dosed after an overnight fast.
Prior to dosing and each blood sampling time, each subject filled out a questionnaire, which consisted of a series of “Visual Analogue Scales” in which the subject was required to rate, on a scale of 0–10, the severity of certain potential side effects. The subjects were instructed that “0” indicated an absent effect and “10” indicated the worst possible effect. The subjects were instructed to interpolate between 0 and 10 for moderate side effects.
Analysis of side effect visual-analogue-scale data was carried out in two formats. In the first format (Table VIII), the analysis concentrated on the general incidence of side effects of a particular type. For each side effect type (e.g., abdominal pain), Table VIII reports the number of subjects who reported a score >1 at any time during the 240 hr post-dosing, and the number of subjects who reported a score >4 at any time during the 240 hr post-dosing. This analysis assumes that all […] represent a real side effect occurrence, however mild or severe. A score >4 is presumed to reflect a moderate-to-severe side effect occurrence.
In the second format (Table IX), the analysis reflects the general severity and duration of side effects. For a particular side effect (e.g., Abdominal Pain) in a particular subject, all visual-analogue-scale scores (over the 240 hr post-dose period) were summed to give a “cumulative score” over the entire time period of evaluation. “Cumulative scores” for all members of a treatment group were summed, and divided by the number of subjects in the group, to a give a Mean Cumulative Score. […] Table IX presents Mean Cumulative Scores for abdominal pain, nausea, regurgitation, and abdominal cramping.

CC[C@H]1OC(=O)[C@H](C)[C@@H](O[C@H]2C[C@@](C)(OC)[C@@H](O)[C@H](C)O2)[C@H](C)[C@@H](O[C@@H]2O[C@H](C)C[C@H](N(C)C)[C@H]2O)[C@](C)(O)C[C@@H](C)CN(C)[C@H](C)[C@@H](O)[C@]1(C)O [azithromycin, 9a-aza-9a-methyl-9-deoxo-9a-homoerythromycin A]
Incidence of Visual-Analogue-Scale score >1, abdominal cramping (1 g IV over 2 hr): 0/5
Incidence of Visual-Analogue-Scale score >1, abdominal pain (1 g IV over 2 hr): 1/5
Incidence of Visual-Analogue-Scale score >1, nausea (1 g IV over 2 hr): 0/5
Incidence of Visual-Analogue-Scale score >1, regurgitation (1 g IV over 2 hr): 0/5
Incidence of Visual-Analogue-Scale score >4, abdominal cramping (1 g IV over 2 hr): 0/5
Incidence of Visual-Analogue-Scale score >4, abdominal pain (1 g IV over 2 hr): 0/5
Incidence of Visual-Analogue-Scale score >4, nausea (1 g IV over 2 hr): 0/5
Incidence of Visual-Analogue-Scale score >4, regurgitation (1 g IV over 2 hr): 0/5
Mean Cumulative Score (Visual Analogue Scale), abdominal cramping (1.0 g IV, n 6): 0.5
Mean Cumulative Score (Visual Analogue Scale), abdominal pain (1.0 g IV, n 6): 1.5
Mean Cumulative Score (Visual Analogue Scale), nausea (1.0 g IV, n 6): 0
Mean Cumulative Score (Visual Analogue Scale), regurgitation (1.0 g IV, n 6): 0
Incidence of Visual-Analogue-Scale score >1, abdominal cramping (2 g IV over 2 hr): 1/6
Incidence of Visual-Analogue-Scale score >1, abdominal pain (2 g IV over 2 hr): 2/6
Incidence of Visual-Analogue-Scale score >1, nausea (2 g IV over 2 hr): 4/6
Incidence of Visual-Analogue-Scale score >1, regurgitation (2 g IV over 2 hr): 1/6
Incidence of Visual-Analogue-Scale score >4, abdominal cramping (2 g IV over 2 hr): 1/6
Incidence of Visual-Analogue-Scale score >4, abdominal pain (2 g IV over 2 hr): 1/6
Incidence of Visual-Analogue-Scale score >4, nausea (2 g IV over 2 hr): 2/6
Incidence of Visual-Analogue-Scale score >4, regurgitation (2 g IV over 2 hr): 0/6
Mean Cumulative Score (Visual Analogue Scale), abdominal cramping (2.0 g IV, n 6): 3.8
Mean Cumulative Score (Visual Analogue Scale), abdominal pain (2.0 g IV, n 6): 5.7
Mean Cumulative Score (Visual Analogue Scale), nausea (2.0 g IV, n 6): 13.2
Mean Cumulative Score (Visual Analogue Scale), regurgitation (2.0 g IV, n 6): 0.5
Incidence of Visual-Analogue-Scale score >1, abdominal cramping (4 g IV over 2 hr): 4/5
Incidence of Visual-Analogue-Scale score >1, abdominal pain (4 g IV over 2 hr): 4/5
Incidence of Visual-Analogue-Scale score >1, nausea (4 g IV over 2 hr): 3/5
Incidence of Visual-Analogue-Scale score >1, regurgitation (4 g IV over 2 hr): 1/5
Incidence of Visual-Analogue-Scale score >4, abdominal cramping (4 g IV over 2 hr): 2/5
Incidence of Visual-Analogue-Scale score >4, abdominal pain (4 g IV over 2 hr): 0/5
Incidence of Visual-Analogue-Scale score >4, nausea (4 g IV over 2 hr): 2/5
Incidence of Visual-Analogue-Scale score >4, regurgitation (4 g IV over 2 hr): 1/5
Mean Cumulative Score (Visual Analogue Scale), abdominal cramping (4.0 g IV, n 5): 11.8
Mean Cumulative Score (Visual Analogue Scale), abdominal pain (4.0 g IV, n 5): 12.8
Mean Cumulative Score (Visual Analogue Scale), nausea (4.0 g IV, n 5): 10.6
Mean Cumulative Score (Visual Analogue Scale), regurgitation (4.0 g IV, n 5): 3.8

From US7108865B2, “Controlled-release dosage forms of azithromycin” (Pfizer Inc, priority 1994, dated 2006)
